Organism: Rattus norvegicus
Experiment: Open TG-GATES - Regimen: Single
Format: toxicity, organism-based, Sprague-Dawley
Design: regimen Single, gender Male, age 6 weeks
Details: in vivo, po, 1000 mg/kg, route gavage, dose level High; for APTT / Bas / Eos / Fbg / Hb / Ht / Lym / MCH / MCHC / MCV / Mono / Neu / PT / Plat / RBC / Ret / WBC: tissue Blood; for KIDNEY_L / KIDNEY_R / KIDNEY_TOTAL: tissue Kidney; for LIVER: tissue Liver; for A/G / ALP / ALT / AST / BUN / CRE / Ca / Cl / DBIL / GLC / IP / K / LDH / Na / PL / RALB / TBIL / TC / TG / TP / gamma-GTP: tissue Plasma

COC1=CC(=O)C[C@@H](C)[C@]12Oc1c(Cl)c(OC)cc(OC)c1C2=O [GRISEOFULVIN]
TERMINAL_BW (3 h): 213.3 g | APTT (3 h): 19.4 s | Bas (3 h): 0% | Eos (3 h): 1% | Fbg (3 h): 212.2 mg/dL | Hb (3 h): 12.2 g/dL | Ht (3 h): 35.6% | Lym (3 h): 78.4% | MCH (3 h): 21.9 pg | MCHC (3 h): 34.3% | MCV (3 h): 63.7 fL | Mono (3 h): 3% | Neu (3 h): 17% | PT (3 h): 13.2 s | Plat (3 h): 124.4 x10_4/uL | RBC (3 h): 557.4 x10_4/ul | Ret (3 h): 8.3% | WBC (3 h): 88.7 x10_2/uL | KIDNEY_L (3 h): 0.9 g | KIDNEY_R (3 h): 0.9 g | KIDNEY_TOTAL (3 h): 1.9 g | LIVER (3 h): 9.6 g | A/G (3 h): 1.9 | ALP (3 h): 900 IU/L | ALT (3 h): 36 IU/L | AST (3 h): 66.6 IU/L | BUN (3 h): 10.6 mg/dL | CRE (3 h): 0.3 mg/dL | Ca (3 h): 11 mg/dL | Cl (3 h): 103.6 meq/L | DBIL (3 h): 0.2 mg/dL | GLC (3 h): 184.2 mg/dL | IP (3 h): 8.2 mg/dL | K (3 h): 4 meq/L | LDH (3 h): 128.4 IU/L | Na (3 h): 140.4 meq/L | PL (3 h): 179.2 mg/dL | RALB (3 h): 3.4 g/dL | TBIL (3 h): 0.3 mg/dL | TC (3 h): 86 mg/dL | TG (3 h): 122.6 mg/dL | TP (3 h): 5.2 g/dL | gamma-GTP (3 h): 1.6 IU/L | TERMINAL_BW (6 h): 211 g | APTT (6 h): 18.5 s | Bas (6 h): 0% | Eos (6 h): 1% | Fbg (6 h): 211.2 mg/dL | Hb (6 h): 12.7 g/dL | Ht (6 h): 37.4% | Lym (6 h): 75.6% | MCH (6 h): 21.9 pg | MCHC (6 h): 34% | MCV (6 h): 64.3 fL | Mono (6 h): 4% | Neu (6 h): 19% | PT (6 h): 13.3 s | Plat (6 h): 123.4 x10_4/uL | RBC (6 h): 582 x10_4/ul | Ret (6 h): 7.7% | WBC (6 h): 90 x10_2/uL | KIDNEY_L (6 h): 1 g | KIDNEY_R (6 h): 1 g | KIDNEY_TOTAL (6 h): 2 g | LIVER (6 h): 9.2 g | A/G (6 h): 1.7 | ALP (6 h): 994.4 IU/L | ALT (6 h): 34 IU/L | AST (6 h): 66.8 IU/L | BUN (6 h): 10.4 mg/dL | CRE (6 h): 0.3 mg/dL | Ca (6 h): 10.8 mg/dL | Cl (6 h): 103.2 meq/L | DBIL (6 h): 0.092 mg/dL | GLC (6 h): 204 mg/dL | IP (6 h): 9.1 mg/dL | K (6 h): 4.1 meq/L | LDH (6 h): 144.2 IU/L | Na (6 h): 141 meq/L | PL (6 h): 154.6 mg/dL | RALB (6 h): 3.3 g/dL | TBIL (6 h): 0.2 mg/dL | TC (6 h): 82.8 mg/dL | TG (6 h): 45 mg/dL | TP (6 h): 5.3 g/dL | gamma-GTP (6 h): 1.4 IU/L | TERMINAL_BW (9 h): 207.4 g | APTT (9 h): 17.9 s | Bas (9 h): 0% | Eos (9 h): 0.8% | Fbg (9 h): 202.4 mg/dL | Hb (9 h): 12.4 g/dL | Ht (9 h): 36.1% | Lym (9 h): 75.2% | MCH (9 h): 21.5 pg | MCHC (9 h): 34.3% | MCV (9 h): 62.8 fL | Mono (9 h): 2.2% | Neu (9 h): 21.6% | PT (9 h): 13.9 s | Plat (9 h): 113.3 x10_4/uL | RBC (9 h): 575.8 x10_4/ul | Ret (9 h): 7.7% | WBC (9 h): 71.8 x10_2/uL | KIDNEY_L (9 h): 0.9 g | KIDNEY_R (9 h): 1 g | KIDNEY_TOTAL (9 h): 1.9 g | LIVER (9 h): 8.4 g | A/G (9 h): 1.8 | ALP (9 h): 1031 IU/L | ALT (9 h): 31.4 IU/L | AST (9 h): 67.6 IU/L | BUN (9 h): 10.8 mg/dL | CRE (9 h): 0.3 mg/dL | Ca (9 h): 10.8 mg/dL | Cl (9 h): 104.4 meq/L | DBIL (9 h): 0.07 mg/dL | GLC (9 h): 186.4 mg/dL | IP (9 h): 10.1 mg/dL | K (9 h): 3.9 meq/L | LDH (9 h): 153.2 IU/L | Na (9 h): 142.2 meq/L | PL (9 h): 134.2 mg/dL | RALB (9 h): 3.5 g/dL | TBIL (9 h): 0.1 mg/dL | TC (9 h): 74.2 mg/dL | TG (9 h): 26.8 mg/dL | TP (9 h): 5.5 g/dL | gamma-GTP (9 h): 1.2 IU/L | TERMINAL_BW (24 h): 222.6 g | APTT (24 h): 18.9 s | Bas (24 h): 0% | Eos (24 h): 0.8% | Fbg (24 h): 206.4 mg/dL | Hb (24 h): 13.1 g/dL | Ht (24 h): 39.3% | Lym (24 h): 79.2% | MCH (24 h): 21.9 pg | MCHC (24 h): 33.4% | MCV (24 h): 65.5 fL | Mono (24 h): 2.6% | Neu (24 h): 16.8% | PT (24 h): 13 s | Plat (24 h): 123.4 x10_4/uL | RBC (24 h): 600.4 x10_4/ul | Ret (24 h): 8% | WBC (24 h): 97.5 x10_2/uL | KIDNEY_L (24 h): 1 g | KIDNEY_R (24 h): 1 g | KIDNEY_TOTAL (24 h): 2 g | LIVER (24 h): 10.5 g | A/G (24 h): 1.6 | ALP (24 h): 1124.8 IU/L | ALT (24 h): 39.8 IU/L | AST (24 h): 69.8 IU/L | BUN (24 h): 13.2 mg/dL | CRE (24 h): 0.4 mg/dL | Ca (24 h): 10.9 mg/dL | Cl (24 h): 104 meq/L | DBIL (24 h): 0.1 mg/dL | GLC (24 h): 212.4 mg/dL | IP (24 h): 8.5 mg/dL | K (24 h): 4 meq/L | LDH (24 h): 148.6 IU/L | Na (24 h): 141 meq/L | PL (24 h): 153 mg/dL | RALB (24 h): 3.3 g/dL | TBIL (24 h): 0.2 mg/dL | TC (24 h): 88 mg/dL | TG (24 h): 88.4 mg/dL | TP (24 h): 5.4 g/dL | gamma-GTP (24 h): 1.4 IU/L

— ChEMBL document CHEMBL3885861, “Open TG-GATES”
